{"source": "patent US20180185370A1", "about": "“PYRAZINOQUINAZOLINONE DERIVATIVES WITH ANTIBACTERIAL ACTIVITY, METHODS AND USES THEREOF” (UNIVERSIDADE DO PORTO, priority 2015, published 2018)", "key": {"S. aureus B1 [1]": {"tested_on": "S. aureus B1", "test": "Broth microdilution Checkerboard method", "format": "cell-based, Staphylococcus aureus", "conditions": "for combined effect with oxacillin: fiscalin C with oxacillin, MRSA (S. aureus B1)", "experimental": "Synergistic studies between compounds and antibiotics. A screening susceptibility test to assess the combined effect between the compounds and antibiotics was conducted using the disc diffusion method on MH, against three multidrug-resistant isolates, E. coli G1, S. aureus B1 and E. faecalis W1. A set of antibiotic discs (Oxoid, Basingstoke, England) was selected based on the resistance of the isolates towards those antibiotics. […] The fractional inhibitory concentration (FIC) was calculated as follows: FIC of drug A (FIC A)=MIC of drug A in combination/MIC of drug A alone, and FIC of drug B (FIC B)=MIC of drug B in combination/MIC of drug B alone. The FIC index (ΣFIC), calculated as the sum of each FIC, was interpreted as follows: ΣFIC 0.5, synergy; 0.5<ΣFIC 4, no interaction; 4<ΣFIC, antagonism."}, "S. aureus B1 [2]": {"tested_on": "S. aureus B1", "test": "Synergy screening with antibiotic discs, disc diffusion method", "format": "cell-based, Staphylococcus aureus", "conditions": "for zone of inhibition on agar plates: not in combination, MRSA isolate S. aureus B1; for inhibition zone: S. aureus B1", "experimental": "Synergistic studies between compounds and antibiotics. A screening susceptibility test to assess the combined effect between the compounds and antibiotics was conducted using the disc diffusion method on MH, against three multidrug-resistant isolates, E. coli G1, S. aureus B1 and E. faecalis W1. A set of antibiotic discs (Oxoid, Basingstoke, England) was selected based on the resistance of the isolates towards those antibiotics. Based on the results of the previous assay, an unexpected synergetic effect between fiscalin C (see FIG. 1I, equation v) and oxacillin (Sigma-Aldrich, St. Louis, Mo., USA) was determined using, in particular, a broth microdilution Checkerboard method against the MRSA isolate (S. aureus B1). The fractional inhibitory concentration (FIC) was calculated as follows: FIC of drug A (FIC A)=MIC of drug A in combination/MIC of drug A alone, and FIC of drug B (FIC B)=MIC of drug B in combination/MIC of drug B alone. The FIC index (ΣFIC), calculated as the sum of each FIC, was interpreted as follows: ΣFIC 0.5, synergy; 0.5<ΣFIC 4, no interaction; 4<ΣFIC, antagonism."}, "E. coli ATCC 25922": {"tested_on": "E. coli ATCC 25922", "test": "Antibacterial susceptibility testing, broth microdilution (MIC)", "format": "cell-based, Escherichia coli", "experimental": "(§1) Bacterial strains and growth conditions. Five reference strains, Staphylococcus aureus ATCC 25923, Bacillus subtilis ATCC 6633, E. faecalis ATCC 29212, Escherichia coli ATCC 25922 and Pseudomonas aeruginosa ATCC 27853, and three multidrug-resistant isolates from environment, S. aureus B1 (a MRSA isolated from public buses), Enterococcus faecalis W1 (a VRE isolated from river water) and E. coli G1 (isolated from seagull feces) were used. Bacteria were grown overnight at 37° C. in Mueller-Hinton agar (MH—BioKar diagnostics, Allonne, France) prior to obtain be used in the subsequently described bioassays.\n(§2) Antibacterial susceptibility testing. The minimum inhibitory concentration (MIC) values of the compounds of FIGS. 1D, 1E, 1G, 1H (equation i-iv) and 11 (equations v-x) were determined, in particular, by a broth microdilution technique, following the recommendations of the Clinical and Laboratory Standards Institute. Stock solutions of 10 mg/ml in DMSO were used to prepare in-test concentrations ranging from 2 to 256 μg/ml. Ciprofloxacin in the concentration range from 0.03125 to 16 μg/ml was used, in particular, as control drug in the experiment. The MIC was defined as the lowest concentration of compound that has inhibited the visible growth. The minimum bactericidal concentration (MBC) was determined by spreading on MH plates, 10 μL collected from the wells corresponding to the MIC and to higher concentrations, with further incubation for 24 h at 37° C.; the lowest concentration at which no growth occurred on MH was defined as the MBC."}, "B. subtilis ATCC 6633": {"tested_on": "B. subtilis ATCC 6633", "test": "Antibacterial susceptibility testing, broth microdilution (MIC/MBC)", "format": "cell-based, Bacillus subtilis", "experimental": "as §1, §2"}, "S. aureus B1 (MRSA)": {"tested_on": "S. aureus B1 (MRSA)", "test": "Antibacterial susceptibility testing, broth microdilution (MIC/MBC)", "format": "cell-based, Staphylococcus aureus", "conditions": "S. aureus B1 (MRSA)", "experimental": "as §1, §2"}, "S. aureus ATCC 25923": {"tested_on": "S. aureus ATCC 25923", "test": "Antibacterial susceptibility testing, broth microdilution (MIC/MBC)", "format": "cell-based, Staphylococcus aureus", "experimental": "as §1, §2"}, "E. faecalis ATCC 29212": {"tested_on": "E. faecalis ATCC 29212", "test": "Antibacterial susceptibility testing, broth microdilution (MIC/MBC)", "format": "cell-based, Enterococcus faecalis", "experimental": "as §1, §2"}, "E. faecalis W1 (VRE)": {"tested_on": "E. faecalis W1 (VRE)", "test": "Antibacterial susceptibility testing, broth microdilution (MIC/MBC)", "format": "cell-based, Enterococcus faecalis", "conditions": "E. faecalis W1 (VRE)", "experimental": "as §1, §2"}, "P. aeruginosa ATCC 27853": {"tested_on": "P. aeruginosa ATCC 27853", "test": "Antibacterial susceptibility testing, broth microdilution (MIC)", "format": "cell-based, Pseudomonas aeruginosa", "experimental": "as §1, §2"}}, "note": "Read-outs that look alike come from different tables or passages of the source.", "data": [{"compound": "CC1(C)S[C@@H]2[C@H](NC(=O)[C@H](N)c3ccccc3)C(=O)N2[C@H]1C(=O)O", "note": "[Ampicillin, ampicillin, reference compound]", "values": [{"measurement": "MIC", "setting": "S. aureus B1 [1]; Staphylococcus aureus, B1", "value": 128, "unit": "mg/L"}, {"measurement": "zone of inhibition on agar plates", "setting": "S. aureus B1 [2]", "value": "neither fiscalin C, ampicillin or oxacillin produced any zone of inhibition"}]}, {"compound": "CC(C)[C@@H]1NC(=O)[C@@H](C[C@]2(O)c3ccccc3N3C(=O)C(C)(C)N[C@H]32)n2c1nc1ccccc1c2=O", "note": "[FIG. 1I (eq. v), fiscalin C]", "values": [{"measurement": "Minimum inhibitory concentration-MIC", "setting": "E. coli ATCC 25922", "value": ">256", "unit": "mg/L"}, {"measurement": "MIC", "setting": "S. aureus B1 [1]; drug alone, S. aureus B1", "value": ">512", "unit": "mg/L"}, {"measurement": "combined effect with ampicillin", "setting": "S. aureus B1 [1]; fiscalin C with ampicillin, S. aureus B1", "value": "indifferent"}, {"measurement": "combined effect with oxacillin", "setting": "S. aureus B1 [1]; listed as Fiscalin C", "value": "synergistic effect"}, {"measurement": "combined effect with oxacillin", "setting": "S. aureus B1 [1]; listed as fiscalin C", "value": "clear synergistic effect"}, {"measurement": "Minimum inhibitory concentration-MIC", "setting": "B. subtilis ATCC 6633", "value": ">256", "unit": "mg/L"}, {"measurement": "inhibition zone", "setting": "S. aureus B1 [2]; fiscalin C in combination with ampicillin", "value": 8, "unit": "mm"}, {"measurement": "inhibition zone", "setting": "S. aureus B1 [2]; fiscalin C in combination with oxacillin", "value": 10, "unit": "mm"}, {"measurement": "zone of inhibition on agar plates", "setting": "S. aureus B1 [2]", "value": "neither fiscalin C, ampicillin or oxacillin produced any zone of inhibition"}, {"measurement": "Minimum inhibitory concentration-MIC", "setting": "S. aureus B1 (MRSA)", "value": ">256", "unit": "mg/L"}, {"measurement": "Minimum inhibitory concentration-MIC", "setting": "S. aureus ATCC 25923", "value": ">256", "unit": "mg/L"}, {"measurement": "Minimum inhibitory concentration-MIC", "setting": "E. faecalis ATCC 29212", "value": ">256", "unit": "mg/L"}, {"measurement": "Minimum inhibitory concentration-MIC", "setting": "E. faecalis W1 (VRE)", "value": ">256", "unit": "mg/L"}, {"measurement": "Minimum inhibitory concentration-MIC", "setting": "P. aeruginosa ATCC 27853", "value": ">256", "unit": "mg/L"}]}, {"compound": "Cc1onc(-c2ccccc2)c1C(=O)N[C@@H]1C(=O)N2[C@@H]1SC(C)(C)[C@@H]2C(=O)O", "note": "[Oxacillin, oxacillin, reference compound]", "values": [{"measurement": "MIC", "setting": "S. aureus B1 [1]; Staphylococcus aureus, drug alone, S. aureus B1, read-out: MIC", "value": 128, "unit": "mg/L"}, {"measurement": "zone of inhibition on agar plates", "setting": "S. aureus B1 [2]", "value": "neither fiscalin C, ampicillin or oxacillin produced any zone of inhibition"}]}, {"compound": "epi-neofiscalin A [FIG. 1I (eq. x)]", "values": [{"measurement": "Minimum inhibitory concentration-MIC", "setting": "E. coli ATCC 25922", "value": ">256", "unit": "mg/L"}, {"measurement": "Minimum inhibitory concentration-MIC", "setting": "B. subtilis ATCC 6633", "value": ">256", "unit": "mg/L"}, {"measurement": "Minimum inhibitory concentration-MIC", "setting": "S. aureus B1 (MRSA)", "value": ">256", "unit": "mg/L"}, {"measurement": "Minimum inhibitory concentration-MIC", "setting": "S. aureus ATCC 25923", "value": ">256", "unit": "mg/L"}, {"measurement": "Minimum inhibitory concentration-MIC", "setting": "E. faecalis ATCC 29212", "value": ">256", "unit": "mg/L"}, {"measurement": "Minimum inhibitory concentration-MIC", "setting": "E. faecalis W1 (VRE)", "value": ">256", "unit": "mg/L"}, {"measurement": "Minimum inhibitory concentration-MIC", "setting": "P. aeruginosa ATCC 27853", "value": ">256", "unit": "mg/L"}]}, {"compound": "tryptoquivaline O [FIG. 1H (eq. iv)]", "values": [{"measurement": "Minimum inhibitory concentration-MIC", "setting": "E. coli ATCC 25922", "value": ">256", "unit": "mg/L"}, {"measurement": "Minimum inhibitory concentration-MIC", "setting": "B. subtilis ATCC 6633", "value": ">256", "unit": "mg/L"}, {"measurement": "Minimum inhibitory concentration-MIC", "setting": "S. aureus B1 (MRSA)", "value": ">256", "unit": "mg/L"}, {"measurement": "Minimum inhibitory concentration-MIC", "setting": "S. aureus ATCC 25923", "value": ">256", "unit": "mg/L"}, {"measurement": "Minimum inhibitory concentration-MIC", "setting": "E. faecalis ATCC 29212", "value": ">256", "unit": "mg/L"}, {"measurement": "Minimum inhibitory concentration-MIC", "setting": "E. faecalis W1 (VRE)", "value": ">256", "unit": "mg/L"}, {"measurement": "Minimum inhibitory concentration-MIC", "setting": "P. aeruginosa ATCC 27853", "value": ">256", "unit": "mg/L"}]}]}
